What was measured:
[1] = tested on: cumulus-oocyte complexes (cumulus expansion); assay: Cumulus expansion assay in vitro; type: cell-based, mice; conditions: in competition with PGE2
Procedure: Folliculogenesis was induced in immature female mice (strain: CD1 (ICR) from Charles River) at an age of 14-18 days by a single dose (intraperitoneal) of 10 I.U. of PMSG (Pregnant Mare Serum Gonadotropin; Sigma G-4877, lot 68H0909). 47-50 hours after the injection, the ovaries were removed and the cumulus-oocyte complexes were removed. The cumulus complex is not yet expanded at this stage.
The cumulus-oocyte complexes were then incubated with prostaglandin E2 (PGE2) (0.3 μM), vehicle control (ethanol) or test substances for 20-24 hours. Medium: alpha-MEM medium with 0.1 mM IBMX, pyruvates (0.23 mM) glutamines (2 mM), pen/strep 100 IU/ml pen. and 100 μg/ml strep. and HSA (8 mg/ml). Cumulus expansion was then established through the division into four stages (according to Vanderhyden et al. Dev Biol. 1990 August; 140(2):307-317).

[2] = target: T1, EP2 subtype of the human PGE2 receptor (Homo sapiens, UniProt P43116); assay: cellular cAMP agonism assay; type: cell-based; conditions: without PGE2
T1 construct: host or cells: cells in a cell culture plate
T1 sequence (P43116 whole entry): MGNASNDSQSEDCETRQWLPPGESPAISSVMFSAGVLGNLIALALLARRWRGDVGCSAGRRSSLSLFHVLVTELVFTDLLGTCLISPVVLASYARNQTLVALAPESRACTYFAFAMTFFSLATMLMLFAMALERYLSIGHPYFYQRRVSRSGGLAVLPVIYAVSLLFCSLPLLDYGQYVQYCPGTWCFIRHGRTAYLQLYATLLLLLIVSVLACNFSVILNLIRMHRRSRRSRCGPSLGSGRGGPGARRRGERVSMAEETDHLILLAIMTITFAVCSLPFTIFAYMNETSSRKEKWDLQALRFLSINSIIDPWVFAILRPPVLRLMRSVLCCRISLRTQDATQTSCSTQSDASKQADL
Procedure: The binding of PGE2 to the EP2 subtype of the human PGE2 receptor induces activation of membrane-associated adenylate cyclases and leads to the formation of cAMP. In the presence of the phosphodiesterase inhibitor IBMX, cAMP which has accumulated due to this stimulation and been released by cell lysis is employed in a competitive detection method. In this assay, the cAMP in the lysate competes with cAMP-XL665 for binding of an Eu cryptate-labelled anti-cAMP antibody.
The two signals are measured in a suitable measuring instrument with a time lag, i.e. after the background fluorescence has declined.
The substance solutions (0.75 μl) introduced into an into an assay plate and 30% DMSO were dissolved in 16 μl of a KRSB+IBMX stimulation solution (1× Krebs-Ringer Bicarbonate Buffer; Sigma-Aldrich # K-4002; including 750 μM 3-isobutyl-1-methylxanthine Sigma-Aldrich # I-7018), and then 15 μl thereof were transferred into a media-free cell culture plate which has been washed with KRSB shortly beforehand.
After incubation at room temperature (RT; volume: ˜15 μl) for 60 minutes, the reaction was then stopped by adding 5 μl of lysis buffer and incubated at RT for a further 20 min (volume: ˜20 μl). The cell lysate was then transferred into a measuring plate and measured in accordance with the manufacturer's instructions (cyclic AMP kit Cisbio International # 62AMPPEC).

effect in the cellular agonism test [2]	SMILES	suppression of the expansion of the cumulus ([1]; 100-200 μM)	suppression of cumulus expansion ([1]; 5 μM)
	CC(C)Oc1ccc2c(=O)c3cc(C(=O)O)ccc3oc2c1 [AH 6809, reference compound]	approx. 30%	
no inhibition	Cc1[nH]c2c(F)ccc(C)c2c1CCNC(=O)c1cc2ccc(C(=O)NCC(N)=O)cc2[nH]1 [Example 6, 2-N-[2-(7-fluoro-2,4-dimethyl-1H-indol-3-yl)ethyl]-6-N-carbamoylmethyl-1H-indole-2,6-dicarboxamide]		approx. 67%
